The compounds below were run against T1, Progesterone receptor (Homo sapiens, UniProt P06401) (assay: Effective concentration on alkaline phosphatase activity in human T47D breast carcinoma cell line.).
T1 sequence (P06401 whole entry): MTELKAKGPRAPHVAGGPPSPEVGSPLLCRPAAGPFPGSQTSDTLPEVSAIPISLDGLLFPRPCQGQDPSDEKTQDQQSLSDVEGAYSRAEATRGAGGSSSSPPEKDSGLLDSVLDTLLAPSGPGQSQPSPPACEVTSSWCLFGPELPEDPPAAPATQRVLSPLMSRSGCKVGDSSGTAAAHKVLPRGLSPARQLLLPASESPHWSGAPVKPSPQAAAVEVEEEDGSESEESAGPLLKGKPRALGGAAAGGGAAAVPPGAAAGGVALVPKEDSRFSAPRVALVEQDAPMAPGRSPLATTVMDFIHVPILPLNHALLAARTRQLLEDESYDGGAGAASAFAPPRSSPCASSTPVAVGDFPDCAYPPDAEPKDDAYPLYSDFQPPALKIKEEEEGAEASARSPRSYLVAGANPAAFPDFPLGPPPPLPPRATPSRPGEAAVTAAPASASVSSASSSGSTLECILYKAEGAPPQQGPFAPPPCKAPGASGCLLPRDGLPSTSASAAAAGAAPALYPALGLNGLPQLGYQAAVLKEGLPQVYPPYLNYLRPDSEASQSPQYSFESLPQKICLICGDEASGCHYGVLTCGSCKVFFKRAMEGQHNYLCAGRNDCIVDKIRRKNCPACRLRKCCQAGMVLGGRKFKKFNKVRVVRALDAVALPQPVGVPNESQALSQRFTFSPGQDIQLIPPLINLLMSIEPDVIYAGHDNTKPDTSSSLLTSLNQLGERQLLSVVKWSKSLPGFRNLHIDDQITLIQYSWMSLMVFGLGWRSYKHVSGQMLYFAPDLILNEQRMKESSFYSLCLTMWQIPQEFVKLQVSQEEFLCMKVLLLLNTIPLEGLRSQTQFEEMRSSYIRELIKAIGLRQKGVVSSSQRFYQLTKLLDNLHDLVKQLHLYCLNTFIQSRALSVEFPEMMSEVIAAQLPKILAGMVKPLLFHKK
Type: functional, cell-based

SMILES | EC50 [nM]
COc1cc(C#N)cc(-c2ccc3c(c2)C(C)(C)OC(=S)N3)c1 | > 10000
CC1(C)OC(=S)Nc2c(Br)cc(-c3cc(F)cc(C#N)c3)cc21 | 80.1
CC1(C)OC(S)=Nc2c(Br)cc(-c3ccc(C#N)c(F)c3)cc21 | > 10000
CC1(C)OC(=S)Nc2c(F)cc(-c3cc(F)cc(C#N)c3)cc21 | 1000
Cc1cc(Br)cc(-c2ccc3c(c2)C(C)(C)OC(=S)N3)c1 | > 10000
CN1C(=S)OC(C)(C)c2cc(-c3cccc(Br)c3)ccc21 | > 10000
CC1(C)OC(=S)Nc2ccc(-c3ccc(F)c(Cl)c3)cc21 | 79.5
SC1=Nc2ccc(-c3cccc(Cl)c3)cc2C(Cc2ccccc2)(Cc2ccccc2)O1 | 1000
CC1(C)OC(=S)Nc2ccc(-c3cc(Br)cc(OC(F)(F)F)c3)cc21 | > 10000
CN1C(=S)OC(C)(C)c2cc(-c3cc(F)cc(Br)c3)ccc21 | > 10000
CC1(C)OC(S)=Nc2ccc(-c3cc(C#N)cc(OC(F)(F)F)c3)cc21 | > 10000
CCN1C(=S)OC(C)(C)c2cc(-c3cc(F)cc(C#N)c3)ccc21 | > 10000
CC1(Cc2ccccc2)OC(=S)Nc2ccc(-c3cccc(Cl)c3)cc21 (configuration not stated) | 88.5
CC1(C)OC(S)=Nc2c(Br)cc(-c3ccc(Cl)c(F)c3)cc21 | 1000
Cc1cc(C#N)cc(-c2ccc3c(c2)C(C)(C)OC(=S)N3)c1 | 200
CC1(C)OC(S)=Nc2ccc(-c3cc(Br)cc(C#N)c3)cc21 | > 10000
CC1OC(=S)Nc2ccc(-c3cccc(F)c3)cc21 (configuration not stated) | 300

Further lines, results first:

EC50 [nM] | SMILES
44.9 | CC1(C)OC(=S)Nc2ccc(-c3cc(Cl)cc(C#N)c3)cc21
2.6 | COc1cc(F)cc(-c2ccc3c(c2)C(C)(C)OC(=S)N3)c1
2.5 | CC1(C)OC(=S)Nc2ccc(-c3cc(F)cc(C(F)(F)F)c3)cc21
0.6 | CC1(C)OC(=S)Nc2ccc(-c3cc(F)cc(C#N)c3)cc21
1.2 | CC1(C)OC(=S)Nc2ccc(-c3coc(C#N)c3)cc21
1.5 | CC1(C)OC(=S)Nc2ccc(-c3cc(F)cc(F)c3)cc21
1.7 | CC1(C)OC(=S)Nc2ccc(-c3cccc(Cl)c3)cc21
1 | CC1(C)OC(=S)Nc2ccc(-c3cccc(F)c3)cc21
7.2 | COc1cccc(-c2ccc3c(c2)C(C)(C)OC(=S)N3)c1
11.4 | CC1(C)OC(=S)Nc2ccc(-c3ccc(F)c(F)c3)cc21
2.5 | CC1(C)OC(=S)Nc2ccc(-c3cccc(Br)c3)cc21
0.4 | CC1(C)OC(=S)Nc2ccc(-c3cccc(C#N)c3)cc21
4.7 | CCC1(CC)OC(=S)Nc2ccc(-c3cccc([N+](=O)[O-])c3)cc21
1.25 | CC1(C)OC(=S)Nc2ccc(-c3ccc(C#N)o3)cc21
11.6 | CC1(C)OC(=S)Nc2ccc(-c3ccccc3F)cc21
1.1 | CC1(C)OC(=S)Nc2ccc(-c3cccc([N+](=O)[O-])c3)cc21
5.7 | CC1(c2ccccc2)OC(=S)Nc2ccc(-c3cccc(Cl)c3)cc21 (configuration not stated)
7.2 | CCC1(CC)OC(=S)Nc2ccc(-c3cccc(Cl)c3)cc21
0.7 | CC1(C)OC(=S)Nc2ccc(-c3ccc(C#N)s3)cc21
1.7 | CC1(C)OC(=S)Nc2ccc(-c3cc(F)cc(Br)c3)cc21
42 | CC1(C)OC(S)=Nc2ccc(-c3cc(C#N)cc(C#N)c3)cc21
0.3 | C=CCC1(C)OC(=S)Nc2ccc(-c3cccc(Cl)c3)cc21 (configuration not stated)
26.5 | CC1(C)OC(=S)Nc2ccc(-c3cc(Cl)cc(Cl)c3)cc21
5.7 | CC1(C)OC(=S)Nc2ccc(-c3cncc(Br)c3)cc21
2.5 | N#Cc1cccc(-c2ccc3c(c2)C2(CCCCC2)OC(=S)N3)c1
49.8 | CC1(C)OC(=S)Nc2ccc(-c3ccccc3Cl)cc21
1.5 | CC1(C)OC(=S)Nc2ccc(-c3cccc(F)c3F)cc21
0.9 | CC1(C)OC(S)=Nc2ccc(-c3cc(F)cc(Cl)c3)cc21

Each compound was assayed against T1, Progesterone receptor (assay: Inhibition of [3H]P4 binding at progesterone receptor of human T47D breast carcinoma cells).
Type: cell-based

IC50 [nM] | SMILES
100 | COc1cc(C#N)cc(-c2ccc3c(c2)C(C)(C)OC(=S)N3)c1
100 | Cc1cc(Br)cc(-c2ccc3c(c2)C(C)(C)OC(=S)N3)c1
100 | CC1(C)OC(=S)Nc2ccc(-c3cc(Br)cc(OC(F)(F)F)c3)cc21
100 | CC1(C)OC(S)=Nc2ccc(-c3cc(C#N)cc(OC(F)(F)F)c3)cc21
100 | CC1(C)OC(S)=Nc2ccc(-c3cc(Br)cc(C#N)c3)cc21

These compounds were tested against T2, Progesterone receptor (Rattus norvegicus) (UniProt Q63449) (assay: Effective dose on oral administration in ovariectomized female rat decidualization model).
T2 sequence (whole entry): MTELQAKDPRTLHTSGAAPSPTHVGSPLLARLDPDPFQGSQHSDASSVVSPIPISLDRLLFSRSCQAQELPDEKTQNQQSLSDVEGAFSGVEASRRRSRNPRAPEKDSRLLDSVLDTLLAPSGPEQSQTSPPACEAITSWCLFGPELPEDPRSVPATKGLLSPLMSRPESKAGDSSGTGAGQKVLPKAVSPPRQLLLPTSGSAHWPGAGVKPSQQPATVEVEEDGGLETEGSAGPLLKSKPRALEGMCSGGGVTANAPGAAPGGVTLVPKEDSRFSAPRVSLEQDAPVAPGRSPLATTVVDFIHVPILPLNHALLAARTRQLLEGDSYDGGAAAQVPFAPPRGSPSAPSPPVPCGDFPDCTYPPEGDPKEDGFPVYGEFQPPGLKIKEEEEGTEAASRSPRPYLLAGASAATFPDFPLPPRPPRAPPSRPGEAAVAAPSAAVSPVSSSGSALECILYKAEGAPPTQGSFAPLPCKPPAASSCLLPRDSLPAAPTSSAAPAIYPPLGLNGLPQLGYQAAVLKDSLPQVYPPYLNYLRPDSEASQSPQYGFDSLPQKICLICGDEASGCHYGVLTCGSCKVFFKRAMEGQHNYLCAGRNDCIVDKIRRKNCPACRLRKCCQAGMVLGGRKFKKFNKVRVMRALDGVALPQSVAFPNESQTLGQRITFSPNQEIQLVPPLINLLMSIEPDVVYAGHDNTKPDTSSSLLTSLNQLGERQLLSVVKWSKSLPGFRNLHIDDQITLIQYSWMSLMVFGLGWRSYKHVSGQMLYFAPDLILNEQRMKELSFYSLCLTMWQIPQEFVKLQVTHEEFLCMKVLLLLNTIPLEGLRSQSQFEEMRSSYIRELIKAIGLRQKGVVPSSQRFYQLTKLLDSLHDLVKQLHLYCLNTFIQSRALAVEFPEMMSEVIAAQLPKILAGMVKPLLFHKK
Type: functional, organism-based

ED50 [mg/kg] | SMILES
0.62 | CC1(C)OC(S)=Nc2ccc(-c3csc(C#N)c3)cc21
0.1 | CC1(C)OC(S)=Nc2ccc(-c3cc(F)cc(C#N)c3)cc21
1.5 | CC1(C)OC(S)=Nc2ccc(-c3ccc(C#N)s3)cc21

What follows are compounds tested against T2, Progesterone receptor (Rattus norvegicus) (assay: Effective dose on subcutaneous administration in ovariectomized female rat decidualization model).
Type: functional, organism-based

ED50 [mg/kg] | SMILES
0.22 | CC1(C)OC(S)=Nc2ccc(-c3csc(C#N)c3)cc21

These compounds were tested against T1, Progesterone receptor (assay: Inhibition of [3H]P4 to progesterone receptor (PR) of human T47D breast carcinoma cells).
Type: cell-based

IC50 [nM] | SMILES
114 | CN1C(=S)OC(C)(C)c2cc(-c3cccc(Br)c3)ccc21
100 | CN1C(=S)OC(C)(C)c2cc(-c3cc(F)cc(Br)c3)ccc21
100 | CCN1C(=S)OC(C)(C)c2cc(-c3cc(F)cc(C#N)c3)ccc21

— ChEMBL document CHEMBL1136686 (Bioorg Med Chem Lett, 2003)
